These are literature values, as cited in patent US20230059204A1, “T[…]-DOSING […] OF PHARMACEUTICAL AGENTS” (PIKE THERAPEUTICS, INC., priority 2021, published 2023).

This series concerns serotonin receptors in the brain. The settings on record: once ingested.

Take `CN(C)CCc1c[nH]c2cccc(OP(=O)(O)O)c12` [psilocybin, [3-(2-dimethylaminoethyl)-1H-indol-4-yl] dihydrogen phosphate]: the “duration of mind-altering effects” value is listed as “two to six”.
